Ends that are not written are not given here. * marks the point of attachment. For = O=C*
How the values were obtained:
[1] = Gel filtration of LPS, BacSp222 and complexes; format: physicochemical
Experimental: Gel filtration was conducted on a Superdex 200 Increase 10/300 GL (Cytiva, Marlborough, MA, USA) column using an UltiMate 3000 HPLC apparatus (Thermo, Waltham, MA, USA). The separations were performed at room temperature in 50 mM NH4COOH pH 5.8 at a flow rate of 0.6 mL/min. The spectrophotometric detection was conducted at 215 and 280 nm, and before separations, the column was calibrated using tryptophan (204 Da), […] (75 kDa), aldolase (158 kDa), ferritin (440 kDa), and Blue Dextran 2000 (2 MDa). The following samples were separated: (1) 375 μg of LPS O55:B5 (IEC), (2) 375 μg of LPS O111:B4 (PE), (3) 75 μg of BacSp222, (4) 375 μg of LPS O55:B5 (IEC) + 75 μg BacSp222, and (5) 375 μg of LPS O111:B4 (PE) + 75 μg BacSp222. All above solutions were prepared in phosphate-buffered saline (PBS) without Ca^2+ and Mg^2+ (Gibco, Paisley, UK) and were preincubated before separation for 15 min at 37 °C. The fractions containing LPS O55:B5 alone and LPS-BacSp222 complex, visible as peaks eluting at 12.5–14 min and 12.5–16 min, both marked by arrows in Figure , were manually collected, freeze-dried, and subjected to sodium dodecyl sulfate polyacrylamide gel electrophoresis (SDS-PAGE) under reducing conditions. […]

Gram-negative = details: ref number not given; cited from earlier work
Excerpt: The present study sheds more light on the multiple biological activities of BacSp222 and further makes the image of this peptide even more complex.

mouse immune cells = details: in the presence of IFN-gamma; ref number not given; cited from earlier work
Excerpt: (§1) A good example of such a multifunctional and immunomodulatory bacteriocin is the peptide BacSp222, produced by an opportunistic canine pathogen, strain 222. BacSp222 is a 50 amino acid long linear peptide encoded on a plasmid and is produced without a leader sequence, retaining a formylated N-terminal methionine. Its amino acid sequence seems to be unique, but the general physicochemical properties of BacSp222 resemble features of a group of several previously described bacteriocins of, predominantly, different staphylococci: lacticins Q and Z, aureocins A53 and AurK411, capidermicin, and epid ...

Gram-positive bacteria = details: pore formation; ref number not given; cited from earlier work
Excerpt: as §1

[2] = tested on: pro-inflammatory cytokines; details: TNF, MCP-1, IL-1-alpha, IL-8; via TLR2/TLR6, MyD88, NF-κB; ref our recent studies; cited from earlier work
Excerpt: as §1

human neutrophils = tested on: human neutrophils; design: method as in number not given; details: ref number not given; cited from earlier work
[3] = Dynamic light scattering, hydrodynamic radius; format: physicochemical; details: BacSp222 alone at 5, 50, 500 μg/mL, DLS, PBS, 37 °C
Experimental: For dynamic light scattering experiments, (1) the solution of PBS without Ca^2+ and Mg^2+ or PBS without Ca^2+ and Mg^2+ with (2) 50 μg/mL LPS O55:B5 (IEC), (3) 50 μg/mL LPS O111:B4 (IEC), (4) BacSp222 at concentration 5, 50, and 500 μg/mL, or (5) 50 μg/mL LPS O55/B5 (IEC) + BacSp222 at concentration 5, 50, and 500 μg/mL were incubated for 15 min at 37 °C. Then, the hydrodynamic radius of the LPS and BacSp222 molecules, as well as LPS-BacSp222 complexes, was determined by dynamic light scattering (DLS) on the Prometheus Panta apparatus (NanoTemper, Munich, Germany). Prometheus Standard Capillaries (NanoTemper, Munich, Germany) were used in the experiments, and the measurements were taken at 37 °C. The results were processed by the instrument software (Prometheus Panta Software).

## For-MAGLLRFLLSKGRALYNWAKSHVGKVWEWLKSGATYEQIKEWIENALGWR [BacSp222]
[1]; 375 μg LPS + 75 μg BacSp222, 15 min, 37 °C, peptide referred to as "the bacteriocin"
  BacSp222 peak at 36 min after incubation with LPS: disappears completely
[1]; peak at 36 min, Superdex 200 Increase, 50 mM NH4COOH pH 5.8, 0.6 mL/min, 215 nm, room temperature
  apparent molecular mass, gel filtration (peptide peak): 5.5 kDa
Gram-negative
  activity against Gram-negative bacteria: inactive against Gram-negative ones
Mouse immune cells
  induction of NO secretion: capable of stimulating mouse immune cells to express an inducible nitric oxide synthase and, consequently, to secrete nitric oxide (NO)
Gram-positive bacteria
  bactericidal activity, Gram-positive bacteria: kills a wide range of Gram-positive bacteria
[2]
  induction of pro-inflammatory cytokines: induces the synthesis of many pro-inflammatory cytokines
Human neutrophils
  activation of human neutrophils (ROS, NETs): cannot activate human neutrophils to produce reactive oxygen species (ROS) and induce the production of extracellular neutrophil traps (NETs)
[3]
  oligomerization in solution: has a tendency to oligomerize in solutions
